Results as given in the supplement of paper PMC10883282.
± gives the standard deviation of the averaged measurements.

Test system: SW684
Assay: relative viability vs DMSO control (72 h) (fraction); higher = more viable cells
Method in brief: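 Sarcoma cell lines went into 384-well plates at densities chosen to reach 80–90% confluence. After 24 h, each well received 2.5 µl of serially diluted compound, with source plates running from 10 mM to 0.0002 mM, and the plates were kept 72 h at 37 °C, 5% CO2, alongside 0.1% DMSO vehicle and a 5 µM positive control. Relative viability was derived from ATPLite readings as percent growth and averaged over up to triplicate wells. The data were then rescaled so that 1 stands for full and 0 for none.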

SMILES | relative viability (0.00017 µM) | relative viability (0.00051 µM) | relative viability (0.00152 µM) | relative viability (0.00457 µM) | relative viability (0.01372 µM) | relative viability (0.04115 µM) | relative viability (0.1235 µM) | relative viability (0.3704 µM) | relative viability (1.111 µM) | relative viability (3.333 µM) | relative viability (10 µM)
CC1(C)CNc2cc(NC(=O)c3cccnc3NCc3ccncc3)ccc21 [Motesanib] | 1.04 ± 0.033 | 0.999 ± 0.073 | 0.999 ± 0.065 | 1.01 ± 0.084 | 0.978 ± 0.016 | 0.9719 ± 0.0041 | 0.99 ± 0.079 | 0.94 ± 0.016 | 0.98 ± 0.064 | 1.02 ± 0.043 | 0.859 ± 0.039
C=CC(=O)Nc1cccc(Oc2nc(Nc3ccc(N4CCN(C)CC4)cc3)nc3ccsc23)c1 [Olmutinib] | 1.07 ± 0.043 | 1.14 ± 0.069 | 1.08 ± 0.029 | 1.15 ± 0.061 | 1.05 ± 0.014 | 1.09 ± 0.025 | 1.149 ± 0.0031 | 1.14 ± 0.073 | 1.07 ± 0.049 | 0.849 ± 0.032 | 0.0282 ± 0.0066
COc1cc2nccc(Oc3ccc(NC(=O)Nc4cc(C)on4)c(Cl)c3)c2cc1OC [Tivozanib] | 1.17 ± 0.059 | 1.16 ± 0.028 | 1.19 ± 0.096 | 1.19 ± 0.054 | 1.16 ± 0.042 | 1.122 ± 0.0093 | 1.15 ± 0.027 | 1.23 ± 0.066 | 1.25 ± 0.092 | 1.12 ± 0.054 | 0.918 ± 0.037
CNC(=O)c1cc(Oc2ccc(NC(=O)Nc3ccc(Cl)c(C(F)(F)F)c3)c(F)c2)ccn1 [Regorafenib] | 1.194 ± 0.0028 | 1.23 ± 0.02 | 1.22 ± 0.013 | 1.24 ± 0.049 | 1.21 ± 0.036 | 1.15 ± 0.031 | 1.21 ± 0.049 | 1.24 ± 0.036 | 1.32 ± 0.054 | 1.3 ± 0.03 | 0.772 ± 0.016
Cc1ccc(F)c(NC(=O)Nc2ccc(-c3cccc4[nH]nc(N)c34)cc2)c1 [Linifanib] | 1.11 ± 0.014 | 1.14 ± 0.02 | 1.13 ± 0.039 | 1.18 ± 0.03 | 1.17 ± 0.023 | 1.18 ± 0.04 | 1.15 ± 0.027 | 1.139 ± 0.011 | 1.16 ± 0.045 | 1.15 ± 0.049 | 1.12 ± 0.041
Cc1cnc(Nc2ccc(OCCN3CCCC3)cc2)nc1Nc1cccc(S(=O)(=O)NC(C)(C)C)c1 [Fedratinib] | 1.12 ± 0.04 | 1.16 ± 0.04 | 1.17 ± 0.081 | 1.16 ± 0.021 | 1.15 ± 0.047 | 1.13 ± 0.038 | 1.1 ± 0.029 | 1 ± 0.023 | 0.666 ± 0.04 | 0.399 ± 0.018 | 0.0027
C=CC(=O)N1CCC([C@@H]2CCNc3c(C(N)=O)c(-c4ccc(Oc5ccccc5)cc4)nn32)CC1 [Zanubrutinib] | 0.998 ± 0.075 | 1.03 ± 0.08 | 1 ± 0.07 | 0.998 ± 0.054 | 1 ± 0.069 | 1.01 ± 0.028 | 1.01 ± 0.047 | 0.978 ± 0.074 | 0.985 ± 0.048 | 0.925 ± 0.038 | 0.89 ± 0.042
CN1CCC(COc2cnc(-c3cccc(Cn4nc(-c5cccc(C#N)c5)ccc4=O)c3)nc2)CC1 [Tepotinib] | 1.11 ± 0.034 | 1.21 ± 0.032 | 1.14 ± 0.055 | 1.16 ± 0.039 | 1.16 ± 0.043 | 1.15 ± 0.065 | 1.18 ± 0.067 | 1.16 ± 0.096 | 1.14 ± 0.08 | 1.1 ± 0.044 | 0.865 ± 0.047
Cc1nc(NC(=O)N2CCC[C@H]2C(N)=O)sc1-c1ccnc(C(C)(C)C(F)(F)F)c1 [Alpelisib] | 1.09 ± 0.054 | 1.12 ± 0.043 | 1.12 ± 0.059 | 1.15 ± 0.065 | 1.09 ± 0.089 | 1.05 ± 0.026 | 1.07 ± 0.061 | 0.968 ± 0.025 | 0.876 ± 0.0097 | 0.643 ± 0.025 | 0.446 ± 0.036
